In PubChem BioAssay AID720570 (Broad Institute, 2013):
The source made the active and inactive calls.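 How the source made its calls: active means cell-killing curve crosses a set limit at a concentration no more than twice the top valid dose; inconclusive means flat curve with a 30 to 70% loss, or a poor fit; inactive means signal rising instead of falling, and the rest.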

test: TC71 Ewing sarcoma cell killing, confirmation, luminescence, cherry-picked samples, retest (AID 720570); details: TC71 Ewing sarcoma viability, CellTiter-Glo ATP, 72 h; at 21 µM (top of the series)

Structure (SMILES) | activity change, negative = cytotoxicity
COc1ccc(CN(C)C[C@H]2Oc3ccc(NC(=O)CCCCCC(=O)Nc4ccccc4N)cc3CC(=O)N([C@H](C)CO)C[C@H]2C)cc1 | -5.04% (inactive)

same assay, conditions: TC71 Ewing sarcoma viability, CellTiter-Glo ATP, 72 h; at 23.5 µM (top of the series)

Structure (SMILES) | activity change, negative = cytotoxicity
COC(=O)C[C@@H]1CC[C@@H]2[C@H](COc3ccc(NC(=O)c4cccc(F)c4)cc3C(=O)N2C)O1 | 2.03% (inactive)
COC(=O)C[C@@H]1CC[C@H]2[C@H](COc3ccc(NC(=O)Nc4ccc(C#N)cc4)cc3C(=O)N2C)O1 | 4.96% (inactive)

same assay, conditions: TC71 Ewing sarcoma viability, CellTiter-Glo ATP, 72 h; at 26 µM (top of the series)

Structure (SMILES) | activity change, negative = cytotoxicity
Cc1noc(C)c1NC(=O)Nc1ccc2c(c1)CC(=O)N([C@@H](C)CO)C[C@@H](C)[C@@H](CN(C)Cc1ccc(Cl)c(Cl)c1)O2 | -0.95% (inactive)
COC(=O)C[C@@H]1CC[C@@H]2[C@H](COc3ccc(NC(=O)Nc4cccc(Cl)c4)cc3C(=O)N2C)O1 | -5.82% (inactive)
COc1ccc(/C=C2\SC(=S)N(CCCC(=O)NC3CCCC3)C2=O)cc1OC | -1.55% (inactive)
Cc1occc1-c1n[nH]c(=S)n1C | 0.805% (inactive)
COC(=O)c1cccc(NC(=O)NC(=O)c2ccccc2Cl)c1 | 7.25% (inactive)
CCCCOc1ccc(NC(=O)C(=O)NCCCn2ccnc2)cc1 | -2% (inactive)
O=C1C(=O)N(CCS(=O)(=O)c2ccccc2)c2ccc(Cl)cc21 | 20.1% (inactive)
C(=C\c1ccc(C2[C@H]3CNC[C@@H]2N3Cc2ccccn2)cc1)/c1ccccc1 (some centres undefined) | -7.86% (inactive)
OCCN1CCN(C(=S)c2ccc(-c3ccccc3)cc2)CC1 | -0.296% (inactive)
CO[C@H]1CN(C)C(=O)c2ccc(NC(=O)c3ccc(-c4ccccc4)cc3)cc2OC[C@H](C)NC[C@H]1C | 7.36% (inactive)
O=C(C[C@@H]1CC[C@@H]2[C@H](COC[C@@H](O)CN2S(=O)(=O)c2ccc(F)cc2)O1)NCc1ccc(Cl)c(Cl)c1 | -10.7% (inactive)
COc1cc(/C=N/NC(=O)c2csc3c2CCCC3)cc(OC)c1O | -7.47% (inactive)
CCOc1ccc(NC(=O)C(=O)N/N=C\c2ccc(CNS(=O)(=O)c3ccccc3)o2)cc1 | 17.4% (inactive)
O=C1C(=O)N(CCS(=O)(=O)c2ccccc2)c2ccccc21 | 2.35% (inactive)
CC(=O)Nc1ccc(OCC(=O)N(CC(C)C)C2CCS(=O)(=O)C2)cc1 (centres undefined) | 11.9% (inactive)
COc1ccc(/C=C2/SC(=S)N(CCCC(=O)Nc3ccccc3C(=O)O)C2=O)cc1 | 15% (inactive)
CC1=NN(c2ccccc2)C(=O)/C1=C\C=C\c1ccccc1 | 22.9% (inactive)
N#C[C@H]1[C@H](c2ccc(C#Cc3ccccc3F)cc2)[C@@H](CO)N1C(=O)C1CCOCC1 | -12.8% (inactive)
O=C(CCCN1C(=O)/C(=C/c2ccccc2Cl)SC1=S)NNC(=O)c1ccc(Cl)cc1Cl | -1.95% (inactive)
Cc1ccc2oc(/N=C(\N)NC(=O)C(C)(C)C)nc2c1 | 2.46% (inactive)
Cc1ccc(Cl)cc1NC(=O)Cn1cc(C(F)(F)F)cc(Cl)c1=O | 2.53% (inactive)
CO[C@H]1CN(C)C(=O)c2cc(NC(=O)c3ccc(Oc4ccccc4)cc3)ccc2OC[C@H](C)NC[C@@H]1C | -22.7% (inactive)
Cc1ccc(C(C(=O)NCc2ccco2)N(C(=O)CNC(=O)c2cccs2)c2c(C)cc(C)cc2C)cc1 (centres undefined) | -13.1% (inactive)
COc1ccc(C(=O)Nc2cccc(C(=O)N/N=C/c3ccc(OC)cc3OC)c2)cc1 | 11.2% (inactive)
O=C(O)CN1C(=O)/C(=C\c2ccccc2OCc2ccc(Cl)cc2Cl)SC1=S | 10.8% (inactive)
C=CCn1c(O)c(N=Nc2ccccc2)c2ccccc21 | 10.5% (inactive)

Structure (SMILES) | activity change, negative = cytotoxicity
CN(C)c1ccc(/C=N/Nc2nc3ccccc3o2)cc1 | 1.68% (inactive)
CCOC(=O)Cc1csc(NC(=S)NC(=O)c2ccc(C)cc2)n1 | 19.7% (inactive)
O=C(O)c1ccc(N/N=C/c2cc(Br)cs2)cc1 | 25.7% (inactive)
CCS(=O)(=O)N1Cc2ccccc2CC1C(=O)Nc1nnc(SCc2ccc(C#N)cc2)s1 (centres undefined) | 21.3% (inactive)
C[C@@H]1CN([C@@H](C)CO)S(=O)(=O)c2ccc(C#Cc3ccncc3)cc2O[C@H]1CN(C)C(=O)C1CCOCC1 | -5.87% (inactive)
CCN1CCN(/C=N/c2nc3c(s2)CCCC3)CC1 | -11.1% (inactive)
O=C(Cc1nn[nH]n1)c1ccccc1O | 13.8% (inactive)
O=C(Nc1ccc(NC(=O)c2cc3ccccc3o2)cc1)c1ccc2c(c1)OCCO2 | -3.21% (inactive)
COC(=O)COc1ccc(-c2nccc(-c3ccccn3)n2)cc1 | 7.95% (inactive)
Nc1ccc(-c2cc3ccccc3c(=O)o2)cc1 | 14.9% (inactive)
COc1cc(C(c2c(C)[nH][nH]c2=O)c2c(C)[nH][nH]c2=O)ccc1OC(C)C | 3.29% (inactive)
COc1ccc2oc(-c3ccccc3)cc(=O)c2c1 | 1.87% (inactive)
COc1ccc(C(=O)CN2C(=O)c3ccccc3S2(=O)=O)cc1 | 19.9% (inactive)
CC(Oc1cccc(Cl)c1)C(=O)NCCCCc1ccccc1 (centres undefined) | 13.3% (inactive)
COC(=O)C[C@@H]1CC[C@@H]2[C@H](COc3ccc(NC(=O)Nc4ccc(C#N)cc4)cc3C(=O)N2C)O1 | 4.12% (inactive)
CC(=O)Nc1ccc(S(=O)(=O)Nc2ccc(N3CCCCC3)cc2)cc1 | -4.73% (inactive)
CC(=O)c1ccc(N(C(=O)Cn2nnc3ccccc32)C(C(=O)NCc2ccccc2)c2ccccn2)cc1 (centres undefined) | 9.64% (inactive)
C/C(=N\N(c1ccccc1)c1ccccc1)c1ccco1 | 12.8% (inactive)
O=C(O)c1cccc(N/N=C/c2ccc(OC(F)(F)F)cc2)c1 | 1.52% (inactive)
COc1ccc(CNc2ncc(-c3ccc(F)cc3)n2C)c2ccccc12 | -1.83% (inactive)
C[C@@H]1CN([C@@H](C)CO)C(=O)c2cccc(NC(=O)Nc3ccccc3)c2O[C@@H]1CN(C)Cc1ccc(-c2ccccc2)cc1 | 20.4% (inactive)
CC(C)c1ccc(OCc2cccc(C(=O)N/N=C/c3cccnc3)c2)cc1 | 0.747% (inactive)
C/C=C/c1ccc([C@H]2[C@@H](CO)N3C(=O)CN(S(=O)(=O)c4cccc(F)c4)C[C@@H]23)cc1 | 13.2% (inactive)
O=C(CCCCl)Nc1nc(-c2ccc3c(c2)OCCO3)cs1 | 3.63% (inactive)
C(=N\Nc1ccc2ccccc2n1)/c1ccc2c(c1)OCCO2 | -8.46% (inactive)
C(=N\Nc1ccc2ccccc2n1)/c1ccc2c(c1)OCO2 | -9% (inactive)

Structure (SMILES) | activity change, negative = cytotoxicity
N#C[C@@H]1[C@H](c2ccc(C#Cc3cccc(F)c3)cc2)[C@@H](CO)N1C(=O)C1CCCC1 | -12.2% (inactive)
COc1ccccc1/C=C1\SC(=S)N(CCC(=O)Nc2cc(C)on2)C1=O | 6.74% (inactive)
CC(C)NC(=O)N(C)C[C@@H]1Oc2cc(C#Cc3ccc(F)cc3)ccc2S(=O)(=O)N([C@H](C)CO)C[C@H]1C | 4.97% (inactive)
CN(C)C(=S)N=Nc1[nH]c2ccccc2c1O | 16.9% (inactive)
CCOC(=O)Cc1ccc(NC(=O)c2ccccc2Br)cc1 | 1.04% (inactive)
C[C@H](CO)N1C[C@H](C)[C@H](CN(C)Cc2ccc(C(F)(F)F)cc2)Oc2c(NS(=O)(=O)c3ccc(Cl)cc3)cccc2C1=O | 46.6% (inactive)
CN(C)c1ccc(N=Nc2ccc(C(=O)O)cc2)cc1 | 9.97% (inactive)
COc1ccc(-c2sc3ccccc3c2-c2ccc(OCCN3CCCCC3)cc2)cc1 | 12.2% (inactive)
CCc1ccc(/C=C2\SC(=S)N(CCCC(=O)N3CCN(C)CC3)C2=O)cc1 | -30.1% (inactive)
COC(=O)C[C@@H]1CC[C@@H]2[C@@H](COc3ccc(NC(=O)Cc4cccs4)cc3C(=O)N2C)O1 | 14.1% (inactive)
CCOc1ccc(-c2cc(CCCC(=O)NCc3ccc(C)cc3)no2)cc1 | -3.16% (inactive)
COC(=O)C[C@H]1C=C[C@@H](NC(=O)Nc2ccc(C(F)(F)F)cc2)[C@H](CO)O1 | 9.61% (inactive)
Cc1ccsc1/C=N/Nc1cccc(C(=O)O)c1 | -2.07% (inactive)
CC(=NNc1ccc2ccccc2n1)c1ccccc1O | -20.9% (inactive)
CCOc1ccc(/C=C2\CCc3ccccc3C2=O)cc1 | 4.42% (inactive)
CCOC(=O)C1CCCCN1C(=O)CCc1c(C)nc2cc(-c3ccccc3)nn2c1C (centres undefined) | 11.3% (inactive)
CCNC(=O)[C@@H]1[C@@H](CO)[C@@H]2Cn3c(ccc(C4=CCCCC4)c3=O)[C@H]1N2CC | 8.36% (inactive)
Cc1cccc(/C=N/Nc2ccc3ccccc3n2)c1 | -16.4% (inactive)
CC(=O)c1ccc(N=Nc2ccc(C)cc2)cc1 | 13.2% (inactive)
S=C(NCCN1CCOCC1)Nc1ccccc1Cl | 11.4% (inactive)
COc1ccc(Cl)cc1S(=O)(=O)Nc1ccc2c(c1)n(C)c(=O)n2C | -4.55% (inactive)
COc1cc(OC)cc(-c2cc3nc(C)c(CCC(=O)NCc4ccccc4)c(C)n3n2)c1 | 9.58% (inactive)
CCN(CC)c1ccc(C2NC(=O)c3ccccc3N2)cc1 (centres undefined) | -26.2% (inactive)
c1ccc(-c2ccc([C@H]3[C@H]4CNC[C@@H]3N4Cc3cc(-c4ccccc4)on3)cc2)cc1 | -7.89% (inactive)
